The results in this text go back to US10617695B2, “Ophthalmic compositions containing alcaftadine” (Vistakon Pharmaceuticals, LLC, priority 2006, dated 2020).

Series [1] in a line: Chemical stability of alcaftadine solution in non-sterilized or gamma irradiated LDPE bottles and glass vials (HPLC). The following applies: Glass Vials; 5° C.; 6 days. Format: physicochemical.
Series [2] deals with RBL-CCR1 (Rat Basophil Leukemia-Chemokine Receptor-1) cell line. The series can be described thus: Mast cell degranulation / cell stabilization in RBL-CCR1 cells. Format: cell-based. How it is done:
The cell stabilization potential of alcaftadine was evaluated using the RBL-CCR1 (Rat Basophil Leukemia-Chemokine Receptor-1) cell line as a way of investigating its ability to effect mast cell stabilization. The use of basophil cell lines to assess anti-allergic drugs for cell stabilization potential is well established. Physiologically, basophils are similar to mast cells, containing pre-formed inflammatory mediators that are released through a similar degranulation process involving IgE cross-linking. Because these cell lines are readily available, they present efficiencies over conducting stabilization assays in mast cell lines.
Cultured RBL-CCR1 cells were sensitized to anti-DNP IgE. Following sensitization, cells were treated with various concentrations of alcaftadine or its major active metabolite (0.083%, 0.0083% and 0.00083%) or ophthalmic vehicle (placebo), and stimulated with DNP and/or MIP-1a (Macrophage Inflammatory Protein-1 alpha, a degranulation enhancer) to induce degranulation. A 10× and 100× placebo control solution (ophthalmic vehicle solution) in D-DEM (Dulbecco's modified Eagle's medium) was also employed.
However, co-stimulation induced a robust degranulation response.

Series [3] deals with adult volunteers with a history of allergic conjunctivitis. The series can be described thus: Conjunctival Allergen Challenge (CAC) in adult volunteers. Format: in vivo, human. How it is done: The anti-allergic effect of a single dose of each of the three concentrations of alcaftadine ophthalmic solutions from Example 1 was assessed in a Conjunctival Allergen Challenge (“CAC”) performed on adult volunteers with a history of allergic conjunctivitis. Subjects were selected after two visits to confirm reactivity to the allergen challenge. […] Subjects were then challenged with allergen by instilling reconstituted commercially available allergen into each eye on two separate visits 16 hours and 15 minutes after the bilateral instillation of alcaftadine, PATANOL® olopatadine hydrochloride ophthalmic solution 0.1% (Alcon, Inc., Fort Worth, Tex.) or vehicle, and the clinical response assessed.
Assessments were made at 7, 15 and 20 minutes post challenge based on investigator evaluations of redness using a 5 point scale.
Nasal symptoms of sneezing, rhinorrhea, pruritis (nasal and ear/palate) and nasal congestion were assessed by subjects using standardized scales.

Where [4] appears, read: administered 16 hours prior to challenge.

In series [1], `CN1CCC(=C2c3ccccc3CCn3c(C=O)cnc32)CC1` [Alcaftadine, 6,11-dihydro-11-(1-methyl-4-piperidinylidene)-5H-imidazo[2,1-b][3]benzazepine-3-carboxaldehyde] registered an Alcaftadine of 2.52 mg/mL and an Oxide of 0.008%. Further, in series [2], the overall membrane stabilization result is “effective membrane stabilizing agents”. Further, the “stabilization effect added to that of placebo” value in series [2] (10× dose level) is “enhanced the stabilization effect”. Further, in series [2] ([…], DNP-HSA alone, MIP-1a alone, and co-stimulation), the “degranulation at the highest concentration” value was “unanticipated and significant degranulation”. In series [2] (co-stimulation assay, concentrations of […] and […], p<0.0001 for both concentrations), the “cell stabilization compared to co-stimulation control and negative controls (placebo 10× and placebo 100×)” value is listed as “superior at cell stabilization”. For the same compound, in series [3] (0.25% treatment group, challenged 15 minutes post-treatment), the “itching scores versus vehicle or PATANOL” value was “lower itching scores than vehicle or PATANOL®”. Moreover, the “conjunctival redness scores versus vehicle or PATANOL” value in series [3] (0.25% treatment group, challenged at 15 minutes post-treatment) is “lower scores than vehicle or PATANOL®”. In series [3] (setting [4]), the “inhibition of conjunctival redness” value is “dose-related inhibition of conjunctival redness” and the “inhibition of ocular itching” value is recorded as “dose-related inhibition of ocular itching”. In series [3] (all concentrations, 16 hours prior to challenge, 3, 5 and 7 minutes post-challenge, 5 point scale), the “mean itching scores versus vehicle or PATANOL” value was “lower mean itching scores”. Also, in series [3] (all concentrations, 16 hours prior to challenge, 7, 15 and 20 minutes post challenge, 5 point scale), the “mean conjunctival redness scores” value was “various degrees of reduction in mean conjunctival redness scores at most assessment times”. For the same compound, the “relief of nasal congestion and rhinorrhea” value in series [3] (all concentrations, various time points) is “some degree of relief”. In addition, the effect on sneezing result in series [3] (baseline sneezing incidence likely too low) is “No effect on sneezing was demonstrated”. The “inhibition of ocular itching” value in series [3] (challenged 15 minutes post-treatment) is “dose-related inhibition of ocular itching as compared to placebo”. Further, the “reduction of rhinorrhea, nasal congestion, and pruritis of the palate/ear” value in series [3] (majority of timepoints at both onset and duration visits) was “significant reduction”.
